From ChEMBL document CHEMBL1287723, “The discovery of new spirocyclic muscarinic M3 antagonists” (Bioorg Med Chem Lett, 2010)

Columns and labels:
[1] = target: T1, Muscarinic acetylcholine receptor M3 (Homo sapiens, UniProt P20309); assay: Displacement of [3H]NMS from human muscarinic M3 receptor expressed in CHO-K1 cells after 16 hrs by scintillation proximity assay; assay type: cell-based
Target sequence in this assay (P20309 whole entry): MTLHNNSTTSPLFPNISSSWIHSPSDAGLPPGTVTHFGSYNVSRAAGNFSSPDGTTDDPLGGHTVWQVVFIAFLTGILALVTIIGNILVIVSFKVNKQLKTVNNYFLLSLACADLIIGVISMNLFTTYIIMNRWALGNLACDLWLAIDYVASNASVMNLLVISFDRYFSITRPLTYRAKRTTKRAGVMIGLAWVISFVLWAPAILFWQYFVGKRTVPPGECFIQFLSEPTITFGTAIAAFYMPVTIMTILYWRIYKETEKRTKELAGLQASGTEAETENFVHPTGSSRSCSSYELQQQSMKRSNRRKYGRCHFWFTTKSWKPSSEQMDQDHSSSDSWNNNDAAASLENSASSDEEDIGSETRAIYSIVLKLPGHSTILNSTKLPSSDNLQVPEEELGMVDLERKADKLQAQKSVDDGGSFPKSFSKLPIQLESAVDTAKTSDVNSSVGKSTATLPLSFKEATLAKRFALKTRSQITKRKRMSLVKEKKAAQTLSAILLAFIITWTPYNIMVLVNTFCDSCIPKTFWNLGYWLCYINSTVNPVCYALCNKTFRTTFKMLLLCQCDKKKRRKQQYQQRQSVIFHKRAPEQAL

[2] = target: T2, Muscarinic acetylcholine receptor M2 (Homo sapiens, UniProt P08172); assay: Displacement of [3H]NMS from human muscarinic M2 receptor expressed in CHO-K1 cells after 16 hrs by scintillation proximity assay; assay type: cell-based
T2 sequence (P08172 whole entry): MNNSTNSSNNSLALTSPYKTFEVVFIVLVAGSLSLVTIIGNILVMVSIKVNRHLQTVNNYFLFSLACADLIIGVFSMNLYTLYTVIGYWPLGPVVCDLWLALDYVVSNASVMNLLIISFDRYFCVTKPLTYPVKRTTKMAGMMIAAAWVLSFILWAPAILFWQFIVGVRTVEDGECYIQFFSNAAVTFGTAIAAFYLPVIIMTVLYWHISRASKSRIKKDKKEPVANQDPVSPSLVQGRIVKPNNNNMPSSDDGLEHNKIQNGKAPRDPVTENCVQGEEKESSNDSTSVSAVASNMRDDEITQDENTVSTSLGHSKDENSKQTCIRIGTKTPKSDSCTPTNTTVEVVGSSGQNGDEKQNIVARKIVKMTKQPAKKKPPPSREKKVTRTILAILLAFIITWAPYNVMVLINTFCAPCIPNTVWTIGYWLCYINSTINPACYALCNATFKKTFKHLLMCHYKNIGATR

[3] = Clearance in human microsomes; assay type: ADME, Microsome
Hepatocyte = assay: Clearance in rat hepatocytes; assay type: ADME, cell-based, Liver
[4] = Lipophilicity, log D of the compound; assay type: physicochemical; details: octanol/water
[5] = target: T3, Muscarinic acetylcholine receptor M1 (Homo sapiens, UniProt P11229); assay: Displacement of [3H]NMS from human muscarinic M1 receptor expressed in CHO-K1 cells after 16 hrs by scintillation proximity assay; assay type: cell-based
T3 sequence (P11229 whole entry): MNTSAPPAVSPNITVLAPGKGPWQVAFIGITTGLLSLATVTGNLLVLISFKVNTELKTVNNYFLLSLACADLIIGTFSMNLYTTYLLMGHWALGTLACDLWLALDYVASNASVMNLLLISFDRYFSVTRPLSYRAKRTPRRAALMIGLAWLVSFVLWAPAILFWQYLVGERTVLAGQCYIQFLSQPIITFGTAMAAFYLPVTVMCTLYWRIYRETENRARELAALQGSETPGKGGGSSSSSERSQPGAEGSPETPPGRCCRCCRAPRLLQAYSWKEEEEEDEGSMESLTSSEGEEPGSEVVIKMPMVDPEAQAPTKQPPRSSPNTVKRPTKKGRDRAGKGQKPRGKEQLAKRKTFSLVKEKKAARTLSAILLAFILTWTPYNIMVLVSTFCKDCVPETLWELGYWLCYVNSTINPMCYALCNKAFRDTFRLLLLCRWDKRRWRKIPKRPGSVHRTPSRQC

[6] = target: T4, Muscarinic acetylcholine receptor M4 (Homo sapiens, UniProt P08173); assay: Displacement of [3H]NMS from human muscarinic M4 receptor expressed in CHO-K1 cells after 16 hrs by scintillation proximity assay; assay type: cell-based
T4 sequence (P08173 whole entry): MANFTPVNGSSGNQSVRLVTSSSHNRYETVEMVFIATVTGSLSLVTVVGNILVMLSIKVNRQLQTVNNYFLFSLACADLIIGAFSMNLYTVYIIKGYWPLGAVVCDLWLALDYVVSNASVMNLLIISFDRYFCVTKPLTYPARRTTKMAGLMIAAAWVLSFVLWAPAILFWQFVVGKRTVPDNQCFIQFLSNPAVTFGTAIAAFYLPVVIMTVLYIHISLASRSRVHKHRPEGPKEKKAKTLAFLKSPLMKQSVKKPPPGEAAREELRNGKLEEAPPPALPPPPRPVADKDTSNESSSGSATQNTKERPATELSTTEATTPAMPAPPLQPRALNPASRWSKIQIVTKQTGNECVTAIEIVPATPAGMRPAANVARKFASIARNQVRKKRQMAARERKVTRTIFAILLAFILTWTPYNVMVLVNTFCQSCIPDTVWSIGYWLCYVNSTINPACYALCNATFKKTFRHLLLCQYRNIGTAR

[7] = target: T5, Muscarinic acetylcholine receptor M5 (Homo sapiens, UniProt P08912); assay: Displacement of [3H]NMS from human muscarinic M5 receptor expressed in CHO-K1 cells after 16 hrs by scintillation proximity assay; assay type: cell-based
T5 sequence (P08912 whole entry): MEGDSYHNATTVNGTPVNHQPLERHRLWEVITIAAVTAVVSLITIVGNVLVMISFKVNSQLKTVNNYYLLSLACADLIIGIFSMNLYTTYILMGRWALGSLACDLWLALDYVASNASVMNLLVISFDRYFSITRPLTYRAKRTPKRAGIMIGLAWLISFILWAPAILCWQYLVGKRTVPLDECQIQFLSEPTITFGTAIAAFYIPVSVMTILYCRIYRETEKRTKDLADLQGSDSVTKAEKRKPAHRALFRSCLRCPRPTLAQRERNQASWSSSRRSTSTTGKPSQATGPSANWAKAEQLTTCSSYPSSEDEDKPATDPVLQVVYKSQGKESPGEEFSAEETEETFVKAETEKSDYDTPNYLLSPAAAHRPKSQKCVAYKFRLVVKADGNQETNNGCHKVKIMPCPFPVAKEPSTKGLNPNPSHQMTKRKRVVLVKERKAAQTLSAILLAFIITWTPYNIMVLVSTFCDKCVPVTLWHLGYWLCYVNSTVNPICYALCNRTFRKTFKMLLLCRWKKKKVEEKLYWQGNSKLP

[8] = target: T1, Muscarinic acetylcholine receptor M3; assay: Displacement of [3H]NMS from human muscarinic M3 receptor expressed in CHO-K1 cells at 1 uM after 16 hrs by scintillation proximity assay; assay type: cell-based
Target sequence in this assay (P20309 whole entry, looked up): as the sequence (P20309 whole entry) above

O=C(c1ccoc1)N1CCOC2(CCN(Cc3ccc(Cl)cc3)CC2)C1
IC50 [1]: 126 nM
IC50 [2]: 63.1 nM

O=C(c1cccnc1)N1CCC2(CCN(Cc3ccccc3)CC2)CC1
IC50 [1]: > 1000 nM
IC50 [2]: 79.4 nM

Cc1nc(C(=O)N2CCOC3(CCN(Cc4ccc(Cl)cc4)CC3)C2)cs1
IC50 [1]: 10 nM
IC50 [2]: 3.16 nM
microsomal CLint [3]: 11 µL/min/mg
CL (Hepatocyte): 47 µL/min/mg
logD [4]: 2.2

CC(C)c1nc(C(=O)N2CCOC3(CCN(Cc4ccc(Cl)cc4)CC3)C2)cs1
IC50 [1]: 15.8 nM
IC50 [2]: 31.6 nM

O=C(c1cnsn1)N1CCOC2(CCN(Cc3ccc(Cl)cc3)CC2)C1
IC50 [1]: 200 nM
IC50 [2]: 39.8 nM

CC(C)c1nc(C(=O)N2CCOC3(CCN(Cc4ccccc4)CC3)C2)cs1
IC50 [1]: 3.98 nM
IC50 [2]: 15.8 nM

Cc1nc(C(=O)N2CCOC3(CCN(Cc4cccc(Cl)c4)CC3)C2)cs1
IC50 [1]: 1.26 nM
IC50 [2]: 1.26 nM

CCc1nc(C(=O)N2CCOC3(CCN(Cc4ccc(Cl)cc4)CC3)C2)cs1
IC50 [1]: 15.8 nM
IC50 [2]: 12.6 nM

Cc1nc(C(=O)N2CCOC3(CCN(Cc4ccccc4Cl)CC3)C2)cs1
IC50 [1]: 7.94 nM
IC50 [2]: 3.16 nM

O=C(c1cscn1)N1CCOC2(CCN(Cc3ccc(Cl)cc3)CC2)C1
IC50 [1]: 158 nM
IC50 [2]: 50.1 nM

CCOc1ccccc1C(=O)N1CCC2(CCN(Cc3ccccc3)CC2)CC1
IC50 [1]: 794 nM
IC50 [2]: 79.4 nM

O=C(c1ccccc1)N1CCC2(CCN(Cc3cccc(Cl)c3)CC2)CC1
IC50 [1]: 100 nM
IC50 [2]: 3.98 nM

O=C(c1ccon1)N1CCOC2(CCN(Cc3ccc(Cl)cc3)CC2)C1
IC50 [1]: 398 nM
IC50 [2]: 79.4 nM

Cc1nc(C(=O)N2CCCC3(CCN(Cc4ccc(Cl)cc4)CC3)C2)cs1
IC50 [1]: > 1000 nM
IC50 [2]: > 1000 nM

CC(C)(C)c1nc(C(=O)N2CCOC3(CCN(Cc4ccc(Cl)cc4)CC3)C2)cs1
IC50 [1]: > 1000 nM
IC50 [2]: > 1000 nM

O=C(c1ccc(CO)o1)N1CCOC2(CCN(Cc3ccc(Cl)cc3)CC2)C1
IC50 [1]: 100 nM
IC50 [2]: 126 nM

O=C(c1ncccn1)N1CCOC2(CCN(Cc3ccc(Cl)cc3)CC2)C1
IC50 [1]: 398 nM
IC50 [2]: 126 nM

Cc1cccc(CN2CCC3(CC2)CCN(C(=O)c2ccccc2)CC3)c1
IC50 [1]: 100 nM
IC50 [2]: 2.51 nM

Cc1nc(C(=O)N2CCCC3(CCN(Cc4ccccc4)CC3)C2)cs1
IC50 [1]: > 1000 nM
IC50 [2]: > 1000 nM

O=C(O[C@H]1C[N+]2(CCCOc3ccccc3)CCC1CC2)C(O)(c1cccs1)c1cccs1 [ACLIDINIUM BROMIDE]
IC50 [5]: 0.1 nM
IC50 [6]: 0.2 nM
IC50 [7]: 0.158 nM

C[N+]1(C)[C@@H]2C[C@@H](OC(=O)C(O)(c3cccs3)c3cccs3)C[C@H]1[C@@H]1O[C@@H]12 [TIOTROPIUM BROMIDE]
IC50 [6]: 0.0398 nM
IC50 [7]: 0.1 nM

O=C(c1ccco1)N1CCC2(CCN(Cc3ccccc3)CC2)CC1
IC50 [1]: > 1000 nM
IC50 [2]: 79.4 nM

O=C(c1ccsc1)N1CCC2(CCN(Cc3ccccc3)CC2)CC1
IC50 [1]: 316 nM
IC50 [2]: 15.8 nM

CC(C)c1nc(C(=O)N2CCOC3(CCN(Cc4cccc(Cl)c4)CC3)C2)cs1
IC50 [1]: 5.01 nM
IC50 [2]: 10 nM

O=C(c1ccco1)N1CCOC2(CCN(Cc3ccc(Cl)cc3)CC2)C1
IC50 [1]: 63.1 nM
IC50 [2]: 25.1 nM

O=C(c1ncccn1)N1CCC2(CCN(Cc3ccccc3)CC2)CC1
IC50 [2]: 251 nM
inhibition [8]: < 50%

O=C(c1ccccc1)N1CCOC2(CCN(Cc3ccc(Cl)cc3)CC2)C1
IC50 [1]: 251 nM
IC50 [2]: 126 nM

Cc1ccccc1CN1CCC2(CC1)CN(C(=O)c1csc(C(C)C)n1)CCO2
IC50 [1]: 398 nM
IC50 [2]: 794 nM

O=C(c1cccs1)N1CCOC2(CCN(Cc3ccc(Cl)cc3)CC2)C1
IC50 [1]: 63.1 nM
IC50 [2]: 20 nM

Cc1ccc(C(=O)N2CCOC3(CCN(Cc4ccc(Cl)cc4)CC3)C2)o1
IC50 [1]: 50.1 nM
IC50 [2]: 50.1 nM

O=C(c1ccc2occc2c1)N1CCOC2(CCN(Cc3ccc(Cl)cc3)CC2)C1
IC50 [1]: 31.6 nM
IC50 [2]: 31.6 nM

CC(C)c1nc(C(=O)N2CCOC3(CCN(Cc4ccccc4Cl)CC3)C2)cs1
IC50 [1]: 20 nM
IC50 [2]: 25.1 nM

O=C(c1cccnc1)N1CCOC2(CCN(Cc3ccc(Cl)cc3)CC2)C1
IC50 [1]: > 1000 nM

O=C(c1ccccc1)N1CCC2(CCN(Cc3ccccc3)CC2)CC1
IC50 [1]: 126 nM
IC50 [2]: 6.31 nM
